Experimental data published in patent US8846750B2, “Pharmaceutical and food compositions for preventing or treating diabetes or obesity” (Korea Ocean Research and Development Institute, priority 2010, dated 2014).
Several values for one entry are separate records, joined by “and”; a condition that tells them apart may be missing. Equal entries are not always repeated.

Assays:
[1] = target: T1, PTP-1b (Homo sapiens, UniProt P18031); assay: Selectivity for protein tyrosine phosphatases: PTP-1b; assay type: biochemical; conditions: at a concentration of 0.2 µM (IC50); read-out: inhibition rate against PTP-1b
T1 construct: purchased Bioneer, Korea
T1 sequence (P18031 1-435): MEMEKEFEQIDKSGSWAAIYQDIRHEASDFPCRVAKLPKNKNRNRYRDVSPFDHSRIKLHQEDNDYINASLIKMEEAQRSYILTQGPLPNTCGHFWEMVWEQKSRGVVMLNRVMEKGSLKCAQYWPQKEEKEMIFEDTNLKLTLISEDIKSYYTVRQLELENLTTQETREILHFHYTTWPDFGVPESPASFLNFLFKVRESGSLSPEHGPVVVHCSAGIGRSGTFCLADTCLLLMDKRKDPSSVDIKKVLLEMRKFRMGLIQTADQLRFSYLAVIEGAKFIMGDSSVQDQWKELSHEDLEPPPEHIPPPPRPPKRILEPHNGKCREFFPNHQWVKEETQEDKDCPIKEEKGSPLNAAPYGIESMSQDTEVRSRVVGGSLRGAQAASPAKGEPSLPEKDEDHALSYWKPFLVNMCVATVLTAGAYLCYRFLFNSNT
Protocol: In order to examine the selectivity of sodium lobarate for protein tyrosine phosphatases, the inhibitory activities of sodium lobarate against PTP-1b, PTPN2, PTPN5, PTPN6, PTPN7 and PTPN13 were examined by spectroscopically measuring the activities of the enzymes.
Specifically, to 0.5 mg/Ml of PTP-1b, PTPN2, PTPN5, PTPN6, PTPN7 or PTPN13 (Bioneer, Korea) in protein tyrosine phosphatase buffer (20 mM Tris-Hcl, pH 8.0, 0.75 mM NaCl, 0.5 mM EDTA, 5 mM β-mercaptoethanol, 50% glycerol), 0, 50, 100 or 200 nM sodium lobarate and the substrate [pTyr1146] insulin receptor (1142-1153, Sigma, USA) were added. Then, each of the mixtures was allowed to react at room temperature for 10-30 minutes, and then malachite green-molybdate dye solution (Sigma, USA) was added thereto and reacted at room temperature for 10 minutes. After completion of the reaction with the substrate, the absorbance at 620 nm was measured.
(§1) In order to examine the selectivity of Lobarin for protein tyrosine phosphatases, the inhibitory activities of Lobarin against PTP-1b, PTPN2, PTPN5, PTPN6, PTPN7 and PTPN13 were examined by spectroscopically measuring the activities of the enzymes.
Specifically, to 0.5 mg/Ml of PTP-1b, PTPN2, PTPN5, PTPN6, PTPN7 or PTPN13 (Bioneer, Korea) in protein tyrosine phosphatase buffer (20 mM Tris-Hcl, pH 8.0, 0.75 mM NaCl, 0.5 mM EDTA, 5 mM β-mercaptoethanol, 50% glycerol), 0, 50, 100 or 200 nM Lobarin and the substrate [pTyr1146] insulin receptor (1142-1153, Sigma, USA) were added. […] After completion of the reaction with the substrate, the absorbance at 620 nm was measured.
as §1, with “Lobarstin” for “Lobarin”, “enzymes. […] After completion of the reaction with the substrate, the absorbance at 620 nm was measured.” for “enzymes.”

[2] = target: T2, PTP-1b (protein tyrosine phosphatase-1b) (Homo sapiens, UniProt P18031); assay: PTP-1b inhibitory activity, malachite green assay with [pTyr1146] insulin receptor substrate; assay type: biochemical; conditions: PTP-1b (Bioneer), absorbance at 620 nm; read-out: IC50 against PTP-1b
T2 construct: purchased Bioneer, Korea
T2 sequence (P18031 1-435): T1 sequence (P18031 1-435)
Protocol: In order to analyze the PTP-1b (protein tyrosine phosphatase-1b) inhibitory activity of sodium lobarate, the activity of the enzyme was spectroscopically measured.
(§2) Specifically, to 0.5 mg/Ml of PTP-1b (Bioneer, Korea) in PTP-1b buffer (20 mM Tris-HCl, pH 8.0, 0.75 mM NaCl, 0.5 mM EDTA, 5 mM β-mercaptoethanol, 50% glycerol), 0, 1, 3, 10, 30, 100, 300, 1,000 and 3,000 nM of sodium lobarate and the substrate [pTyr1146] insulin receptor (1142-1153, Sigma, USA) were added. Each mixture was allowed to react at room temperature for 10-30 minutes, and malachite green-molybdate dye solution was added thereto and reacted at room temperature for 10 minutes. After completion between PTP-1b, sodium lobarate and the substrate, the absorbance at 620 nm was measured.
The activity of the enzyme was spectroscopically measured to analyze the protein PTP-1b inhibitory activity of Lobarin.
as §2, with “Tris-HCL,” for “Tris-HCl,”, “1000 or 3000” for “1,000 and 3,000”, “Lobarin” for “of sodium lobarate”, “of the mixtures” for “mixture”, “Lobarin” for “sodium lobarate”
The activity of the enzyme was spectroscopically measured to analyze the protein PTP-1b inhibitory activity of Lobarstin. Specifically, to 0.5 mg/Ml of PTP-1b (Bioneer, Korea) in PTP-1b buffer (20 mM Tris-HCL, pH 8.0, 0.75 mM NaCl, 0.5 mM EDTA, 5 mM β-mercaptoethanol, 50% glycerol), 0, 1, 3, 10, 30, 100, 300, 1000 or 3000 nM Lobarstin and the substrate [pTyr1146] insulin receptor (1142-1153, Sigma, USA) were added. […] After completion between PTP-1b, Lobarstin and the substrate, the absorbance at 620 nm was measured.

In the case of `CCCCCc1c(Oc2cc(OC)cc3c2C(=O)OC3(O)CCCC)c(O)cc(O)c1C(=O)O` (stereo not drawn) [Lobarin], the inhibition at 0.2 µM [1] is reported as 52.2% and the IC50 [2] is reported as 149 nM and 155 nM.
`CCCCCc1c2c(cc(O)c1C(=O)[O-])OC(=O)c1c(cc(OC)cc1C(=O)CCCC)O2.[Na+]` [sodium lobarate] gave an inhibition at 0.2 µM [1] of 50% and an IC50 [2] of 350 nM.
Molecule `CCC/C=C1/OC(=O)c2c(Oc3c(O)cc(O)c(C(=O)O)c3CCCCC)cc(OC)cc21` [Lobarstin] has an inhibition at 0.2 µM [1] of 48% and an IC50 [2] of 155 nM.
